Test results taken from US20220016127A1, “COMPOSITIONS AND METHODS FOR INDUCING APPENDAGE AND LIMB REGENERATION” (priority 2020, published 2022).
Values joined by “and” are separate entries in the source; they are usually repeats but may differ in a detail not shown here. Equal entries are not always repeated.

What was measured:
Aurelia ephyra [1] = test: Arm regeneration induction in amputated Aurelia ephyrae; assay type: in vivo, Aurelia aurita; details: for effect on arm regeneration / regeneration frequency (in words): amputated ephyrae, factor added to artificial seawater upon amputation; for Percent regeneration, Average: average over experiments; for Effect size, Length of arm regenerates: Response Ratio treated vs control (Table 7); for Average effect size: Risk Ratio of regeneration frequency, across experiments (Table 4); for Average effect size / Odds Ratio: treated vs control; for Effect size, % ephyrae regenerating / Effect size, % ephyrae regenerating >1 arm / Effect size, % ephyrae regenerating rhopalia: Risk Ratio treated vs control (Table 7); for Odds Ratio: odds of regeneration, across experiments (Table 6)
Method: Amputation. Strobilated ephyrae were fed daily with rotifers (Brachionus plicatilis) until amputation time. 2-3 days old ephyrae were anesthetized in 400 μM menthol and amputated using a razor blade mounted on an x-acto knife handle. After amputation, ephyrae were let to recover in bubbler cones (FIG. 7). Regeneration was assessed at various times until 1-2 weeks after amputation, before onset of maturation to medusa.
Inducing regeneration. Experimental setup. 0.5-1 L sand settling cones were repurposed as jellyfish aquaria (Nalgene Imhoff; FIG. 7). Each cone was equipped with an airline from a Tetra Whisper air pump 100 to create a gentle vertical current (˜1 bubble/sec, see FIG. 30). The conical geometry eliminates stagnant spots, where the ephyrae could get stuck. In this “bubbler cone” setup, the ephyrae were continually in water current either in the upward air bubble-generated current or the downward self-generated current. 500 mL artificial seawater and 30 ephyrae were placed in each cone to avoid crowding and fouling. Artificial seawater was changed every week. Nutrients. In some embodiments, the food amount given here only serves as an initial estimate; percentage of regeneration can easily vary with lab culture condition (e.g., polyp and rotifer size, age, health), as well as subject to variation across polyps and strobilation batches (see Table 2A-Table 2C for a sense of the variation). Amputated ephyrae were fed daily with rotifers. The number of rotifers administered daily was estimated using a 6-well plate fitted with STEMgrid™ (the same principle as using a hemocytometer). In some embodiments, low food is ˜100-200 rotifers/ephyra, whereas high food is ˜400 rotifers/ephyra. Insulin. Human recombinant insulin was administered to the amputated ephyrae at 500 nM immediately after amputation (by mixing in the artificial seawater). If the experiment proceeds longer than a week, fresh insulin was added at the one-week time point. Hypoxia. Nitrogen or argon flow, instead of ambient air flow, was introduced via the airline into the bubbler cone immediately after amputation, and maintained throughout the duration of the experiment. The nitrogen flow was adjusted to achieve 50% reduction in the dissolved oxygen level.
Inhibiting or activating mTOR. 1 nM Sapanisertib (Selleck Chemicals S2811), 1 μM A769662 (Santa Cruz sc-203790), or 100 μM L-leucine (Sigma L1002, the cell-permeable methyl ester hydrochloride form) was administered into the artificial seawater right after amputation, and refreshed weekly. Statistical analysis. Percent regeneration was first normalized to the control (for sapanisertib and A769662, the HF+DMSO control; for leucine data the LF control), and then the student's t-test (two tailed, equal variances) in Excel was used to test the null hypothesis that the fold change in % regeneration is zero. Drosophila melanogaster
Amputation. Strobilated ephyrae were fed daily with rotifers (Brachionus plicatilis, Reed Mariculture) until amputation time. 2-3 days old ephyrae were anesthetized in 400 μM menthol and amputated using a razor blade mounted on an x-acto knife handle. After amputation, ephyrae were let to recover in bubbler cones (FIG. 21). Regeneration was assessed at various times for 1-2 weeks after amputation, before onset of maturation to medusa. Experiment in the original habitat. The polyp population in the study arose from parental polyps collected off the coast of Long Beach, Calif. (33° 46′04.2″N 118° 07′44.2″W, GPS: 33.7678376,−118.1289559). Ephyrae were amputated in location and immediately after submersed in the ocean. For submerging the amputated ephyrae in the ocean, a two-layered aquarium was custom-built. Ephyrae were placed in plastic canisters with a 7 cm diameter hole cut in the lid and covered with a 250 μm plastic screen. The canisters were then placed in a thick plastic tank fitted with a 500 μm plastic screen on top. […]

Drosophila limb = test: Tibia (hindlimb) regeneration in amputated adult Drosophila; assay type: in vivo, Drosophila melanogaster; details: adult flies, fed in food
Method: Amputation. Adult flies 2-7 days after eclosion were anesthetized with CO2. Amputations were performed under a dissection microscope using a spring scissors (Fine Science Tools, 91500-09) and superfine dissecting forceps (VWR, 82027-402). Recovering Drosophila were fed with standard fly food (control) or standard fly food supplemented with 2 mM L-leucine (Sigma L8000), 2 mM L-Glutamine (Sigma G3126), and 0.1 mg/mL insulin (MP Biomedicals 0219390080) or other molecular factors. To introduce molecular factors into fly food, standard fly food was microwaved in short pulses, such that the topmost layer of the food was liquified. Molecular factors in aqueous medium were then pipetted into this liquified layer. Food was allowed to re-set at 4° C. for at least 20 minutes. New food was prepared fresh every 2 days throughout the course of the 2-week experiment. Regeneration was assessed at 3, 6, 9 and 14 days post amputation.
Drosophila were amputated on the hindlimb, across the fourth segment of the leg, the tibia (FIG. 16A-FIG. 16C). The amputation removed the distal half to third of the tibia and all tarsal segments. […] Regeneration was assessed between 7-21 dpa as the presence of a regrown tibia with a reformed distal joint (FIG. 16E). […]

Aurelia ephyra [2] = test: Body size (growth) of amputated Aurelia ephyrae; assay type: in vivo, Aurelia aurita; details: Response Ratio across experiments (Table 8)
Method: Two-to-three-day-old ephyrae were anesthetized in 400 μM menthol and amputated using a razor blade mounted on an x-acto knife handle. Amputated ephyrae were let to recover in 1 L sand settling cones (Nalgene Imhoff, FIG. 21). In each experiment, ˜90 animals were amputated for each condition (e.g., 90 animals for control and 90 animals for treated). Because of the varying baseline across strobilation batches, each experiment was repeated across 2-5 strobilation batches (biological replicates). These sample sizes were chosen to obtain a 95% confidence level on the treatment effect (statistical analysis described below). Hundreds of experimental animals were first amputated, mixed together in a beaker, and then randomly allocated to the control or treatment groups. Regeneration was assessed at various times for 1-2 weeks after amputation, before onset of maturation to medusa. All data were included in the analysis.
For measurements of arm length and body size, the datasets are in the form of continuous variables. For such data, the commonly used effect size is the Response Ratio (R, EQUATION 3),
R evaluates the proportionate change that results from a treatment, and is the meaningful effect size to use when the outcome of a treatment is measured on a physical scale, e.g., length or area (as opposed to arbitrary scale, e.g., happiness level). […]

Aurelia ephyra [3] = test: Arm regeneration induction in amputated Aurelia ephyrae; assay type: in vivo, Aurelia aurita; details: low food (LF) background; single experiments; arm regeneration 1-2 weeks after amputation; insulin 500 nM, L-leucine 100 μM / 100 mM, nitrogen flow ~50% reduction in oxygen
[4] = high food (HF) background, single experiments, insulin 500 nM, 1 nM sapanisertib, 1 μM A769662 (controls HF + DMSO), nitrogen or argon flow ~50% reduction in oxygen

N#Cc1c(O)c2c(-c3ccc(-c4ccccc4O)cc3)csc2[nH]c1=O [A769662, reference compound]
effect on arm regeneration / regeneration frequency (in words) (Aurelia ephyra [1]): inhibited arm regeneration | Percent regeneration, Average (Aurelia ephyra [1]; high food (HF) background): 8.3% | Percent regeneration (Aurelia ephyra [1]; [4]): 9.8% and 7.0%

CC(C)C[C@H](N)C(=O)O [Leucine, L-leucine]
effect on tibia regrowth (in words) (Drosophila limb): can by itself effect tibia regrowth | Effect size, Length of arm regenerates (Aurelia ephyra [1]): 1.7 | Average effect size (Aurelia ephyra [1]): 4.1 | Effect size, % ephyrae regenerating (Aurelia ephyra [1]): 4.1 | Effect size, % ephyrae regenerating >1 arm (Aurelia ephyra [1]): 6.0 | Effect size, % ephyrae regenerating rhopalia (Aurelia ephyra [1]): 6.1 | effect on arm regeneration / regeneration frequency (in words) (Aurelia ephyra [1]): induced arm regeneration | Percent regeneration, Average (Aurelia ephyra [1]; low food (LF) background): 23.0% | Odds Ratio (Aurelia ephyra [1]): 5.8 | Ave. body diameter treatment/control (Aurelia ephyra [2]): 1.1

Tgfb: protein tested in the screen (hTGF-β1, Peprotech 100-21)
effect on arm regeneration / regeneration frequency (in words) (Aurelia ephyra [1]): no effect

Insulin: human recombinant insulin (Sigma I0908), 500 nM in artificial seawater
Percent regeneration (Aurelia ephyra [3]): 25% | Effect size, Length of arm regenerates (Aurelia ephyra [1]): 1.2 | Average effect size (Aurelia ephyra [1]): 2.4 | Effect size, % ephyrae regenerating (Aurelia ephyra [1]): 2.4 | Effect size, % ephyrae regenerating >1 arm (Aurelia ephyra [1]): 1.9 | Effect size, % ephyrae regenerating rhopalia (Aurelia ephyra [1]): 1.3 | Percent regeneration (Aurelia ephyra [1]; [4]): 36.4% | Odds Ratio (Aurelia ephyra [1]): 5.0 | Ave. body diameter treatment/control (Aurelia ephyra [2]): 1.4

CC(C)n1nc(-c2ccc3oc(N)nc3c2)c2c(N)ncnc21 [Sap, Sapanisertib, reference compound]
Percent regeneration, Average (Aurelia ephyra [1]; high food (HF) background): 11.5%

N#N [nitrogen]
Percent regeneration (Aurelia ephyra [3]): 32.5% | Percent regeneration (Aurelia ephyra [1]; LF* background, single experiment, nitrogen flow): 28.4% | Percent regeneration, Average (Aurelia ephyra [1]; high food (HF) background): 69.3% | Percent regeneration (Aurelia ephyra [1]; [4]): 82.1% and 56.9% | Percent regeneration, Average (Aurelia ephyra [1]; low food (LF) background): 30.6%

[Ar] [argon]
effect on arm regeneration / regeneration frequency (in words) (Aurelia ephyra [1]): dramatically induced regeneration | Percent regeneration (Aurelia ephyra [1]; [4]): 72.5%
